In patent publication US9296734B2 (AMGEN INC., priority 2013, dated 2016):
pIC50: −log10 of the molar value. Like-named read-outs stand apart in the source and are kept apart here.

Legend:
[1] = target: Cathepsin D (Cat D) (Homo sapiens (Human), UniProt P07339); assay: In vitro enzymatic Cathepsin D (Cat D) FRET assay; type: biochemical; conditions: read-out: CatD IC50
Summary of the method: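 CHO-expressed recombinant Cat D cleaves a fluorophore/quencher FRET peptide (20 nM) in 0.05 M citrate pH 3.5, 5 mM CHAPS, 10% DMSO final, over 1 h. Tris addition neutralizes pH to stop the reaction; fluorescence read at excitation 500 nm, emission 580 nm.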

[2] = target: Beta Secretase enzyme (BACE) (Homo sapiens (Human), UniProt P56817); assay: In vitro enzymatic BACE FRET assay; type: biochemical; conditions: read-out: BACE 1 FRET assay IC50
Chain of Beta Secretase enzyme (BACE) (P56817 46-501): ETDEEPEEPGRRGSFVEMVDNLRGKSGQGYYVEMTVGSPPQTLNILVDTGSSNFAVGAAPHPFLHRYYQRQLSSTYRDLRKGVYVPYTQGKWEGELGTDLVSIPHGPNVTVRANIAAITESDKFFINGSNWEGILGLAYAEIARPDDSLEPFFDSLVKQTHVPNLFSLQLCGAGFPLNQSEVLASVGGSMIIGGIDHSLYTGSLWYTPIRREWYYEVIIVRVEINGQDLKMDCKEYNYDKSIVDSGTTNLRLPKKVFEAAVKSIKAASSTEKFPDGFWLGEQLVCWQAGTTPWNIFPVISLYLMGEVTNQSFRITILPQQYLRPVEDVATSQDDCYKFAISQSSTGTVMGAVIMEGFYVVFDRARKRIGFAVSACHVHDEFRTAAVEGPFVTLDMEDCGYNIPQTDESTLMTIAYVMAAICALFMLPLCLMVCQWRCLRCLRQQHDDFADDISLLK
Summary of the method: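 A quenched fluorophore-peptide spanning the BACE cleavage site served as substrate at 50 nM, with one-hour incubation in pH 4.2 acetate buffer containing 100 uM genapol and 10% DMSO final. Fluorescence was measured after quenching with Tris to neutral pH.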

[3] = system: Aβ40 in conditioned medium of cells stably expressing Amyloid Precursor Protein (APP); assay: In vitro BACE cell-based assay (Aβ40 sandwich ELISA); conditions: Homo sapiens
Summary of the method: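 Aβ40 in supernatants was measured by time-resolved fluorescence sandwich ELISA using pAb40 capture and biotinylated 6E10 detection, with antibody incubations at 4 °C. Stable APP cells were exposed to compounds for 24 h in a 10-point series (top dose 100 or 10 µM, 0.1% DMSO). IC50 was fitted from the concentration-response.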

[4] = HEK293, average IC50, HEK cells, read-out: HEK cell assay IC50
[5] = average IC50, cathepsin D enzyme assay
[6] = average IC50, BACE enzyme assay
[7] = HEK293, average IC50, HEK cell assay, read-out: HEK cell assay IC50
[8] = HEK293, HEK cells, average, read-out: HEK cell assay IC50

Chain of Cathepsin D (Cat D) (P07339 65-412, species assumed): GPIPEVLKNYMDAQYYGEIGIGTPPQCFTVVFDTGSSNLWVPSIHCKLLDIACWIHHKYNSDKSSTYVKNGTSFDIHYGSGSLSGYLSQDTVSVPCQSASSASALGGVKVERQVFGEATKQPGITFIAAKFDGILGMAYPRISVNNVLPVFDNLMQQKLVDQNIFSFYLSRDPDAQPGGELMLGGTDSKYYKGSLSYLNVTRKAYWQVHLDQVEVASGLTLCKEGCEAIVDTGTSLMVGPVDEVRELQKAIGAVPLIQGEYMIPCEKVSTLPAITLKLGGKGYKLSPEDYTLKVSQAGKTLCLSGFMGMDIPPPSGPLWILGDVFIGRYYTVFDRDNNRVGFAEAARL

Row | pIC50 ([1]; average IC50) | pIC50 ([2]; average IC50) | pIC50 [3, 4] | pIC50 [1, 5] | pIC50 [2, 6] | pIC50 [3, 7] | SMILES | other results
1 | < 3.40 | 5.54 | 5.59 | – | – | – | NC1=N[C@](CF)(c2cc(Oc3ncc(Cl)cc3F)ccc2F)C[C@@H](C(F)(F)F)O1 [Example 95, (4S,6S)-4-(5-((5-chloro-3-fluoropyridin-2-yl)oxy)-2-fluorophenyl)-4-(fluoromethyl)-6-(trifluoromethyl)-5,6-dihydro-4H-1,3-oxazin-2-amine] | –
2 | – | – | – | < 3.40 | 7.29 | 7.38 | NC1=N[C@](CF)(c2cc(NC(=O)c3ncc(Cl)cc3F)ccc2F)C[C@@H](C(F)(F)F)O1 [Example 34, N-(3-((4S,6S)-2-amino-4-(fluoromethyl)-6-(trifluoromethyl)-5,6-dihydro-4H-1,3-oxazin-4-yl)-4-fluorophenyl)-5-chloro-3-fluoropicolinamide] | –
3 | – | – | – | < 3.40 | 6.89 | 6.98 | NC1=N[C@](CF)(c2cc(NC(=O)c3ncc(C(F)F)cc3Cl)ccc2F)C[C@@H](C(F)(F)F)O1 [Example 40, N-(3-((4S,6S)-2-amino-4-(fluoromethyl)-6-(trifluoromethyl)-5,6-dihydro-4H-1,3-oxazin-4-yl)-4-fluorophenyl)-3-chloro-5-(difluoromethyl)picolinamide] | –
4 | < 3.40 | 6.43 | 7.04 | – | – | – | C[C@@]1(c2cc(Nc3ncnc4cc(C#N)cnc34)cnc2F)C[C@@H](C(F)(F)F)OC(N)=N1 [Example 75, 4-((5-((4S,6S)-2-amino-4-methyl-6-(trifluoromethyl)-5,6-dihydro-4H-1,3-oxazin-4-yl)-6-fluoropyridin-3-yl)amino)pyrido[3,2-d]pyrimidine-7-carbonitrile] | –
5 | – | – | – | – | – | – | C#CCOc1cnc(C(=O)Nc2cc(C)c(F)c([C@]3(CF)C[C@@H](C(F)(F)F)OC(N)=N3)c2)cn1 [Example 218, N-(3-((4S,6S)-2-amino-4-(fluoromethyl)-6-(trifluoromethyl)-5,6-dihydro-4H-1,3-oxazin-4-yl)-4-fluoro-5-methylphenyl)-5-(prop-2-yn-1-yloxy)pyrazine-2-carboxamide] | pIC50 ([1]; average): 3.72; pIC50 ([2]; average): 9.00; pIC50 [3, 8]: 8.70
6 | – | – | – | – | – | – | NC1=N[C@](CF)(c2cc(C#Cc3cccc4[nH]ccc34)ccc2F)C[C@@H](C(F)(F)F)O1 [Example 130, (4S,6S)-4-(5-((1H-indol-4-yl)ethynyl)-2-fluorophenyl)-4-(fluoromethyl)-6-(trifluoromethyl)-5,6-dihydro-4H-1,3-oxazin-2-amine] | pIC50 ([1]; average): 3.24; pIC50 ([2]; average): 5.25; pIC50 [3, 8]: 5.68
7 | – | – | – | 3.82 | 7.10 | 6.91 | C[C@@]1(c2cc(NC(=O)c3ccc(OCC(F)(F)F)cn3)cnc2F)C[C@@H](C(F)(F)F)OC(N)=N1 [Example 65, N-(5-((4S,6S)-2-amino-4-methyl-6-(trifluoromethyl)-5,6-dihydro-4H-1,3-oxazin-4-yl)-6-fluoropyridin-3-yl)-5-(2,2,2-trifluoroethoxy)picolinamide] | –
8 | 3.31 | 6.99 | 7.53 | – | – | – | Cc1cc(OC(F)F)cnc1C(=O)Nc1ccc(F)c([C@]2(C)C[C@@H](C(F)(F)F)OC(N)=N2)n1 [Example 85, N-(6-((4S,6S)-2-amino-4-methyl-6-(trifluoromethyl)-5,6-dihydro-4H-1,3-oxazin-4-yl)-5-fluoropyridin-2-yl)-5-(difluoromethoxy)-3-methylpicolinamide] | –
9 | – | – | – | – | – | – | C[C@@]1(c2cc(NC(=O)c3ncc(C(F)(F)F)cc3Cl)cc(F)c2F)C[C@@H](C(F)(F)F)OC(N)=N1 [Example 187, N-(3-((4S,6S)-2-amino-4-methyl-6-(trifluoromethyl)-5,6-dihydro-4H-1,3-oxazin-4-yl)-4,5-difluorophenyl)-3-chloro-5-(trifluoromethyl)picolinamide] | pIC50 ([1]; average): < 3.40; pIC50 ([2]; average): 7.12; pIC50 [3, 8]: 7.82
10 | – | – | – | 2.75 | 4.72 | 5.15 | N#Cc1cc(Nc2ccc(F)c([C@]3(CF)C[C@@H](C(F)(F)F)OC(N)=N3)c2)ccn1 [Example 24, 4-((3-((4S,6S)-2-amino-4-(fluoromethyl)-6-(trifluoromethyl)-5,6-dihydro-4H-1,3-oxazin-4-yl)-4-fluorophenyl)amino)picolinonitrile] | –
11 | < 3.40 | 7.74 | 6.69 | – | – | – | NC1=N[C@](CF)(c2cc(Nc3nccc4cc(Cl)cnc34)ccc2F)C[C@@H](C(F)(F)F)O1 [Example 8, (4S,6S)-4-(5-((3-chloro-1,7-naphthyridin-8-yl)amino)-2-fluorophenyl)-4-(fluoromethyl)-6-(trifluoromethyl)-5,6-dihydro-4H-1,3-oxazin-2-amine] | –
12 | – | – | – | 2.52 | 7.64 | 6.71 | NC1=N[C@](CF)(c2cc(NC(=O)c3ccc(C#CC4CC4)cn3)ccc2F)C[C@@H](C(F)(F)F)O1 [Example 53, N-(3-((4S,6S)-2-amino-4-(fluoromethyl)-6-(trifluoromethyl)-5,6-dihydro-4H-1,3-oxazin-4-yl)-4-fluorophenyl)-5-(cyclopropylethynyl)picolinamid] | –
13 | – | – | – | 2.46 | 4.94 | < 4.81 | NC1=N[C@](CF)(c2cc(C(=O)NC3CC3)ccc2F)C[C@@H](C(F)(F)F)O1 [Example 182, 3-((4S,6S)-2-amino-4-(fluoromethyl)-6-(trifluoromethyl)-5,6-dihydro-4H-1,3-oxazin-4-yl)-N-cyclopropyl-4-fluorobenzamide] | –
14 | – | – | – | < 3.40 | 4.25 | 5.68 | COC1CCN(C(=O)Nc2ccc(F)c([C@]3(C)C[C@@H](C(F)(F)F)OC(N)=N3)c2)CC1 [Example 119, N-(3-((4S,6S)-2-amino-4-methyl-6-(trifluoromethyl)-5,6-dihydro-4H-1,3-oxazin-4-yl)-4-fluorophenyl)-4-methoxypiperidine-1-carboxamide] | –
15 | – | – | – | 2.47 | 7.30 | 6.90 | COc1cnc(C(=O)Nc2cc(F)c(F)c([C@]3(CF)C[C@@H](C(F)(F)F)OC(N)=N3)c2)cn1 [Example 153, N-(3-((4S,6S)-2-amino-4-(fluoromethyl)-6-(trifluoromethyl)-5,6-dihydro-4H-1,3-oxazin-4-yl)-4,5-difluorophenyl)-5-methoxypyrazine-2-carboxamide] | –
16 | – | – | – | – | – | – | NC1=N[C@](CF)(c2cc(C#Cc3ccc(OC4CCC4)cn3)ccc2F)C[C@@H](C(F)(F)F)O1 [Example 128, (4S,6S)-4-(5-((5-cyclobutoxypyridin-2-yl)ethynyl)-2-fluorophenyl)-4-(fluoromethyl)-6-(trifluoromethyl)-5,6-dihydro-4H-1,3-oxazin-2-amine] | pIC50 ([1]; average): 2.97; pIC50 ([2]; average): 4.69; pIC50 [3, 8]: 5.22
17 | 2.74 | 5.47 | 5.34 | – | – | – | NC1=N[C@](CF)(c2cc(Oc3cccc(C(F)(F)F)n3)ccc2F)C[C@@H](C(F)(F)F)O1 [Example 110, (4S,6S)-4-(2-fluoro-5-((6-(trifluoromethyl)pyridin-2-yl)oxy)phenyl)-4-(fluoromethyl)-6-(trifluoromethyl)-5,6-dihydro-4H-1,3-oxazin-2-amine] | –
18 | < 3.40 | 7.25 | 7.17 | – | – | – | COc1cc(Cl)cnc1C(=O)Nc1ccc(F)c([C@]2(CF)C[C@@H](C(F)(F)F)OC(N)=N2)c1 [Example 47] | –
19 | < 3.40 | 7.44 | 7.28 | – | – | – | Cc1c(C(=O)Nc2ccc(F)c([C@]3(CF)C[C@@H](C(F)(F)F)OC(N)=N3)c2)nc2ccc(Cl)cn12 [Example 6, N-(3-((4S,6S)-2-amino-4-(fluoromethyl)-6-(trifluoromethyl)-5,6-dihydro-4H-1,3-oxazin-4-yl)-4-fluorophenyl)-6-chloro-3-methylimidazo[1,2-a]pyridine-2-carboxamide] | –
20 | – | – | – | 3.33 | 5.19 | 5.36 | NC1=N[C@](CF)(c2cc(Nc3ccnc(Br)c3)ccc2F)C[C@@H](C(F)(F)F)O1 [Example 17, (4S,6S)-4-(5-((2-bromopyridin-4-yl)amino)-2-fluorophenyl)-4-(fluoromethyl)-6-(trifluoromethyl)-5,6-dihydro-4H-1,3-oxazin-2-amine] | –
21 | < 3.40 | 7.38 | 7.49 | – | – | – | COc1cc(C#N)cnc1C(=O)Nc1ccc(F)c([C@]2(CF)C[C@@H](C(F)(F)F)OC(N)=N2)c1 [Example 48, N-(3-((4S,6S)-2-amino-4-(fluoromethyl)-6-(trifluoromethyl)-5,6-dihydro-4H-1,3-oxazin-4-yl)-4-fluorophenyl)-5-cyano-3-methoxypicolinamide] | –
22 | 2.75 | 6.77 | 6.19 | – | – | – | N#Cc1ccc(C(=O)Nc2cnc(F)c([C@]3(CF)C[C@@H](C(F)(F)F)OC(N)=N3)c2)nc1 [Example 141, N-(5-((4S,6S)-2-amino-4-(fluoromethyl)-6-(trifluoromethyl)-5,6-dihydro-4H-1,3-oxazin-4-yl)-6-fluoropyridin-3-yl)-5-cyanopicolinamide] | –

Row | SMILES | pIC50 ([1]; average IC50) | pIC50 ([2]; average IC50) | pIC50 [3, 4] | pIC50 [1, 5] | pIC50 [2, 6] | pIC50 [3, 7] | other results
23 | C[C@@]1(c2cc(NC(=O)c3ncc(C#N)cc3Cl)cnc2F)C[C@@H](C(F)(F)F)OC(N)=N1 [Example 66, N-(5-((4S,6S)-2-amino-4-methyl-6-(trifluoromethyl)-5,6-dihydro-4H-1,3-oxazin-4-yl)-6-fluoropyridin-3-yl)-3-chloro-5-cyanopicolinamide] | < 3.40 | 7.22 | – | – | – | – | pIC50 ([3]; HEK293, read-out: HEK cell assay IC50): 7.45
